Reference: ChEMBL document CHEMBL3880412, “Indole derivatives as CFTR modulators” (2009)

System: Cystic fibrosis transmembrane conductance regulator (Homo sapiens), P13569 [F508del]
Assay: Correction activity at CFTR F508 deletion mutant (unknown origin) expressed in mouse NIH/3T3 cells assessed as increase in cAMP/genistein-dependent current amplitude at 10 uM incubated for 10 mins at 37 degC by patch clamp method relative to control
Type: cell-based

Sequence of Cystic fibrosis transmembrane conductance regulator (Homo sapiens), P13569 [F508del] (P13569 as listed by the source): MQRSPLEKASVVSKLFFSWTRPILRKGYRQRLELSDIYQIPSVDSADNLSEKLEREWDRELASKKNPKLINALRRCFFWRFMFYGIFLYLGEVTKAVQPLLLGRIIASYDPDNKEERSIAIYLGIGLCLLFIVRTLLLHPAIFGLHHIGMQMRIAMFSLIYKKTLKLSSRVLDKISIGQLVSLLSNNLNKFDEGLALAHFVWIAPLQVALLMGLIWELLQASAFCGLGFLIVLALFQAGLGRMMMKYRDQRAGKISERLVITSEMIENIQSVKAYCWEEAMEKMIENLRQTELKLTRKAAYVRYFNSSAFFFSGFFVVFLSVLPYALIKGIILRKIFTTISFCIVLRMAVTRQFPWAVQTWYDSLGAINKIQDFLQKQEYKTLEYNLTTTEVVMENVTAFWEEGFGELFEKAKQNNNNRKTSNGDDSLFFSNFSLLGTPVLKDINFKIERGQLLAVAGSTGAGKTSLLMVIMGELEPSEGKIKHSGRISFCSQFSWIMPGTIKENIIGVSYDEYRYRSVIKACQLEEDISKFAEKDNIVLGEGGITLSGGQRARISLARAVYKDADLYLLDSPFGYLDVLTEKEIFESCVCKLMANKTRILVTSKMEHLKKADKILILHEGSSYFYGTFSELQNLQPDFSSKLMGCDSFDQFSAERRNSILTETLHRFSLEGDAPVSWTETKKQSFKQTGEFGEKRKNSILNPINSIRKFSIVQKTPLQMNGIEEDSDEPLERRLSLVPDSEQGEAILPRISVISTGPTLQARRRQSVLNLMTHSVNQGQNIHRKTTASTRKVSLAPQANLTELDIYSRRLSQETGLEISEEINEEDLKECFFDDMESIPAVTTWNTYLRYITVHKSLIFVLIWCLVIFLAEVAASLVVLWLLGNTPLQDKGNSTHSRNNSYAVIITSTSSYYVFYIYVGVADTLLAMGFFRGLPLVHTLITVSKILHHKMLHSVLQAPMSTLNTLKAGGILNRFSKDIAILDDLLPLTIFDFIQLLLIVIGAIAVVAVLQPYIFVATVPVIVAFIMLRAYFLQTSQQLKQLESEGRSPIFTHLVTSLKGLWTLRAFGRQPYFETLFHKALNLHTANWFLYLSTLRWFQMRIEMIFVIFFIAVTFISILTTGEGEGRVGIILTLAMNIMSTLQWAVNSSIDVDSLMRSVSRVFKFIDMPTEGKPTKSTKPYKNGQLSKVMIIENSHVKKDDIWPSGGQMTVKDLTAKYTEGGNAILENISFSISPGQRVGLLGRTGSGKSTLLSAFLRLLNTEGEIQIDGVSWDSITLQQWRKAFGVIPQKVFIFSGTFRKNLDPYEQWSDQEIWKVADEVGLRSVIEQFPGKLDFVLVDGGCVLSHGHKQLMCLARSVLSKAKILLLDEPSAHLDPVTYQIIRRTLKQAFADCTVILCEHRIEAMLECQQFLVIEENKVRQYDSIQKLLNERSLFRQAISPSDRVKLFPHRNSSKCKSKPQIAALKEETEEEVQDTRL

Row | Emax | SMILES
1 | 120 to 132% | CC(C)(C)c1cc2cc(NC(=O)C3(c4ccc5c(c4)OCO5)CC3)c(F)cc2n1C[C@@H](O)CO
2 | 122% | CC(C)(C)c1cc2cc(NC(=O)C3(c4ccc5c(c4)OC(F)(F)O5)CC3)c(F)cc2n1CC[N+](C)(C)C
